According to patent US20260308186A1, “STAT DEGRADERS AND USES THEREOF” (Recludix Pharma, Inc., priority 2023, published 2026):
Read-outs that look alike come from different tables or passages of the source.

How the values were obtained:
pSTAT6 = target: T1, pSTAT6 (Homo sapiens, UniProt P42226); assay: MSD-pSTAT-PBMC Assay, pSTAT6 (IL-4 stimulated PBMC); format: cell-based
T1 construct: pY641-STAT6 MSD read-out
T1 sequence (P42226 1-847): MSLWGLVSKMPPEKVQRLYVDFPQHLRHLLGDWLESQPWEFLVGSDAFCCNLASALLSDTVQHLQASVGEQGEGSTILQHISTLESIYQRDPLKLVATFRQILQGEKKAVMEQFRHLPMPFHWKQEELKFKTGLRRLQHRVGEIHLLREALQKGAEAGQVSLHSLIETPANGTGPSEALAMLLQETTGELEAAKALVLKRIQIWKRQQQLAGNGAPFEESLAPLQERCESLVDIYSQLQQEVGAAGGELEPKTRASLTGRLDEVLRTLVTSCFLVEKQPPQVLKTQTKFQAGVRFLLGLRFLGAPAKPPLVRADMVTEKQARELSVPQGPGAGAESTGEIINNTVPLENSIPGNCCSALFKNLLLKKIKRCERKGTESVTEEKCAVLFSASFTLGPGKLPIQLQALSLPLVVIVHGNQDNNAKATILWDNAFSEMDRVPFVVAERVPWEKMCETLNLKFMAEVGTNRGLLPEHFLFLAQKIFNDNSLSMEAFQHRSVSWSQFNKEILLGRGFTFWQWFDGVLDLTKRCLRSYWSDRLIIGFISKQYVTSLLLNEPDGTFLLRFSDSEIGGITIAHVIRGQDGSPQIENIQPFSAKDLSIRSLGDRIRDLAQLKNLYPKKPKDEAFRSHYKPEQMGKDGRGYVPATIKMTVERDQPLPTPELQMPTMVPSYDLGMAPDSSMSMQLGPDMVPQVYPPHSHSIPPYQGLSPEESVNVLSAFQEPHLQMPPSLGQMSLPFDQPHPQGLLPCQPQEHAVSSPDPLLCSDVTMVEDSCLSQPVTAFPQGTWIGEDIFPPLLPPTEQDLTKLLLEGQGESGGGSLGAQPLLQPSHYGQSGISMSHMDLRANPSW
Excerpt: Cryopreserved Peripheral Blood Mononuclear Cells (PBMC) are from AllCells. Recombinant Human IL-4 and IL-6 are from Peprotech. Mouse monoclonal anti-STAT3 antibody, rabbit monoclonal anti-pY705-STAT3 antibody, rabbit monoclonal Anti-pY641-STAT6 antibody, and lysis buffer are from Cell Signaling Technology (CST). Mouse monoclonal anti-STAT6 antibody is from BioLegend. Assay plates, blocker, and anti-rabbit secondary antibody are from Meso Scale Discovery (MSD).
Cryopreserved PBMCs were thawed out and allowed to recover overnight in IMDM+10% heat-inactivated FBS prior to plating 50,000 (STAT3) or 25,000 (STAT6) cells per well in 96-well U-bottom tissue culture plates. Cells were treated with compound for 3 hrs. then stimulated with 10 ng/mL IL-6 (STAT3) or 1 ng/mL IL-4 (STAT6) for 10 min. Cells were then spun down and washed with ice-cold PBS prior to lysing the cell pellet with 1× lysis buffer (CST) with 1×HALT protease and phosphatase inhibitor cocktail (Thermo). Lysates were transferred to and incubated overnight at 4° C. with shaking in QuickPlex 96-well high bind assay plates (MSD) pre-coated overnight with 30 μL per well of 0.6 μg/mL mouse monoclonal anti-STAT3 antibody (STAT3) or 2 μg/mL mouse monoclonal anti-STAT6 antibody (STAT6) in 1×PBS, and pre-blocked for 1 hour with 3% Blocker-A (MSD). Captured protein in the assay plates were then washed and probed with 25 μL per well of 0.25 μg/ml rabbit monoclonal anti-pY705-STAT3 antibody (STAT3) or 0.18 μg/ml rabbit monoclonal Anti-pY641-STAT6 antibody (STAT6) in 1% Blocker-A for 1 hour at room temperature with shaking, then washed and probed with 25 ul per well of 1 ug/ml Sulfo-TAG Labeled Goat Anti-Rabbit Antibody (MSD) in 1% Blocker-A for 1 hour at room temperature with shaking. Assay plates were then washed and 150 μL of 1× Read Buffer-T (MSD) was added to each well prior to reading on an SQ120 MSD Plate Reader. Assay signal from each sample was subtracted by the signal from unstimulated control wells and normalized to DMSO control wells. IC50 values were calculated using Graph Pad Prism Dose-Response Nonlinear Regression with variable slope. For both pSTAT3 and pSTAT6 A=≤100 nM; B=>100-1000 nM; C=>1000-3000 nM; and D=>3 μM.

STAT3 = target: T2, STAT3 (Homo sapiens, UniProt P40763); assay: STAT3 Fluorescence Polarization (FP) Assay; format: binding; conditions: recombinant STAT3 25 nM; probe 5-FAM-GpYLPQTV-NH2 2 nM; 45 min, room temperature; read-out: STAT3 FP IC50
T2 construct: Recombinant STAT3 protein (STAT3(G127-1722))
Description: STAT3 Fluorescence Polarization (FP) Assay
An FP assay was developed to determine IC50 values for test substances. Recombinant STAT3 protein (STAT3(G127-1722)) at 25 nM was combined with a fluorescently labeled, phosphotyrosine peptide probe (5-FAM-GpYLPQTV-NH2) at 2 nM in FP buffer (10 mM HEPES pH 7.4, 50 mM NaCl, 1 mM EDTA, 0.05% Tween 20.2 mM DTT). 50 μL of STAT3-probe mixture was added to serial diluted compounds in black, 96-well plates (Greiner BioOne 655076) to a final concentration of 1% DMSO. Reaction components were mixed, and FP was measured after 45-minute incubation at room temperature using a Tecan Spark multimode plate reader. FP signal (mP) was plotted against the log concentration of the test substances and IC50 values were calculated by nonlinear regression analysis using GraphPad Prism software. For STAT3 FP assay. A=≤100 nM; B=>100-1000 nM; C=>1-10 μM; and D=>10 μM.

[1] = read-out: pSTAT6 IC50, compound 3 hrs, then 1 ng/mL IL-4 for 10 min, pY641-STAT6
[2] = compound 3 hrs, then 1 ng/mL IL-4 for 10 min, pY641-STAT6, read-out: pSTAT6 IC50

T2 sequence (P40763 127-722 limits assumed): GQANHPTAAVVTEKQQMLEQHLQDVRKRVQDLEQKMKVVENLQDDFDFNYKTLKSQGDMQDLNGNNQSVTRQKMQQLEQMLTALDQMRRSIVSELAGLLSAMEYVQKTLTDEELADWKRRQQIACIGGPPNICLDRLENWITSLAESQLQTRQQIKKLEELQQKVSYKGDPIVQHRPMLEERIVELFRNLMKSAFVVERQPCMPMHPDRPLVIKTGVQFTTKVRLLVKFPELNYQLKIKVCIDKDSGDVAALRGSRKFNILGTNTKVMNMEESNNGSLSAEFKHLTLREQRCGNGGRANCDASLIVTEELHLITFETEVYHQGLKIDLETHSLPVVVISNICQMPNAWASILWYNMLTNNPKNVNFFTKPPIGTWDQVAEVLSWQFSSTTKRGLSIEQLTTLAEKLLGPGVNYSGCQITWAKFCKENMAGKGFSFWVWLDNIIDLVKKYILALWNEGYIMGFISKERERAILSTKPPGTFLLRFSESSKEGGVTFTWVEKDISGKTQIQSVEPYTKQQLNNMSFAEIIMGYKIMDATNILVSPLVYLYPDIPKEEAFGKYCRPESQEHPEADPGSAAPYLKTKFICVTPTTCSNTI

Row | SMILES | IC50 (pSTAT6; [2]) [µM] | IC50 (STAT3) [µM] | IC50 (pSTAT6; [1]) [µM]
1 | CCCOC(=O)[C@H](C)NP(=O)(Cc1ccc2ccc(C(=O)N[C@H]3CN(C(=O)c4n[nH]c5ccc(C)cc45)CC[C@H]4CC[C@@H](C(=O)N(C)CCCCCCC#Cc5cccc6c5CN(C5CCC(=O)NC5=O)C6=O)N4C3=O)cc2c1)Oc1ccccc1 (stereo partly drawn) [Compound 16, propyl (((7-(((5S,8S,10aR)-8-((8-(2-(2,6-dioxopiperidin-3-yl)-1-oxoisoindolin-4-yl)oct-7-yn-1-yl)(methyl)carbamoyl)-3-(5-methyl-1H-indazole-3-carbonyl)-6-oxodecahydropyrrolo[1,2-a][1,5]diazocin-5-yl)carbamoyl)naphthalen-2-yl)methyl)(phenoxy)phosphoryl)-L-alaninate] | – | – | > 3
2 | Cc1ccc2onc(C(=O)N3CC[C@H]4CC[C@@H](C(=O)N(C)CCCCCCC#Cc5cccc6c5CN(C5CCC(=O)NC5=O)C6=O)N4C(=O)[C@@H](NC(=O)c4ccc5ccc(C(F)(F)P(=O)(O)OCCSC(=O)C(C)(C)C)cc5c4)C3)c2c1 (stereo partly drawn) [Compound 17, S-(2-((((7-(((5S,8S,10aR)-8-((8-(2-(2,6-dioxopiperidin-3-yl)-1-oxoisoindolin-4-yl)oct-7-yn-1-yl)(methyl)carbamoyl)-3-(5-methylbenzo[d]isoxazole-3-carbonyl)-6-oxodecahydropyrrolo[1,2-a][1,5]diazocin-5-yl)carbamoyl)naphthalen-2-yl)difluoromethyl)(hydroxy)phosphoryl)oxy)ethyl) 2,2-dimethylpropanethioate] | > 3 | – | –
3 | Cc1ccc2onc(C(=O)N3CC[C@H]4CC[C@@H](C(=O)N(C)CCCCCCC#Cc5cccc6c5CN(C5CCC(=O)NC5=O)C6=O)N4C(=O)[C@@H](NC(=O)c4ccc5ccc(C(F)(F)P(=O)(O)OCOC(=O)OC(C)C)cc5c4)C3)c2c1 (stereo partly drawn) [Compound 20, ((((7-(((5S,8S,10aR)-8-((8-(2-(2,6-dioxopiperidin-3-yl)-1-oxoisoindolin-4-yl)oct-7-yn-1-yl)(methyl)carbamoyl)-3-(5-methylbenzo[d]isoxazole-3-carbonyl)-6-oxodecahydropyrrolo[1,2-a][1,5]diazocin-5-yl)carbamoyl)naphthalen-2-yl)difluoromethyl)(hydroxy)phosphoryl)oxy)methyl isopropyl carbonate] | 1 to 3 | – | –
4 | Cc1ccc2onc(C(=O)N3CC[C@H]4CC[C@@H](C(=O)N(C)CCCCCCC#Cc5cccc6c5CN(C5CCC(=O)NC5=O)C6=O)N4C(=O)[C@@H](NC(=O)c4ccc5ccc(C(F)(F)P(=O)(O)OCCSC(=O)CC(C)C)cc5c4)C3)c2c1 (stereo partly drawn) [Compound 23, S-(2-((((7-(((5S,8S,10aR)-8-((8-(2-(2,6-dioxopiperidin-3-yl)-1-oxoisoindolin-4-yl)oct-7-yn-1-yl)(methyl)carbamoyl)-3-(5-methylbenzo[d]isoxazole-3-carbonyl)-6-oxodecahydropyrrolo[1,2-a][1,5]diazocin-5-yl)carbamoyl)naphthalen-2-yl)difluoromethyl)(hydroxy)phosphoryl)oxy)ethyl) 3-methylbutanethioate] | > 3 | – | –
5 | CCCOC(=O)[C@H](C)NP(=O)(Oc1ccccc1)C(F)c1ccc2ccc(C(=O)N[C@H]3CN(C(=O)c4noc5ccc(C)cc45)CC[C@H]4CC[C@@H](C(=O)N(C)CCCCCCC#Cc5cccc6c5CN(C5CCC(=O)NC5=O)C6=O)N4C3=O)cc2c1 (stereo partly drawn) [Compound 26, propyl (((7-(((5S,8S,10aR)-8-((8-(2-(2,6-dioxopiperidin-3-yl)-1-oxoisoindolin-4-yl)oct-7-yn-1-yl)(methyl)carbamoyl)-3-(5-methylbenzo[d]isoxazole-3-carbonyl)-6-oxodecahydropyrrolo[1,2-a][1,5]diazocin-5-yl)carbamoyl)naphthalen-2-yl)fluoromethyl)(phenoxy)phosphoryl)-L-alaninate] | – | – | > 3
6 | CC(=O)N[C@H](C(=O)N1C[C@H](O)C[C@H]1C(=O)NCc1ccc(-c2scnc2C)cc1OCCCCN(C)C(=O)[C@@H]1CC[C@@H]2CCN(C(=O)c3noc4ccc(C)cc34)C[C@H](NC(=O)c3ccc4ccc(C(F)(F)P(=O)(O)O)cc4c3)C(=O)N21)C(C)(C)C [Compound 31, ((7-(((5S,8S,10aR)-8-((4-(2-(((2S,4R)-1-((S)-2-acetamido-3,3-dimethylbutanoyl)-4-hydroxypyrrolidine-2-carboxamido)methyl)-5-(4-methylthiazol-5-yl)phenoxy)butyl)(methyl)carbamoyl)-3-(5-methylbenzo[d]isoxazole-3-carbonyl)-6-oxodecahydropyrrolo[1,2-a][1,5]diazocin-5-yl)carbamoyl)naphthalen-2-yl)difluoromethyl)phosphonic acid] | > 3 | 1 to 10 | –

More lines, main results first:

Row | IC50 (pSTAT6; [2]) [µM] | IC50 (STAT3) [µM] | SMILES | IC50 (pSTAT6; [1]) [µM]
7 | < 0.1 | – | Cc1ccc2onc(C(=O)N3CC[C@H]4CC[C@@H](C(=O)N(C)CCCCCCC#Cc5cccc6c5CN(C5CCC(=O)NC5=O)C6=O)N4C(=O)[C@@H](NC(=O)c4ccc5ccc(C(F)(F)P(=O)(OCCSC(=O)C(C)(C)C)OCCSC(=O)C(C)(C)C)cc5c4)C3)c2c1 (stereo partly drawn) [Compound 18, S,S′-(((((7-(((5S,8S,10aR)-8-((8-(2-(2,6-dioxopiperidin-3-yl)-1-oxoisoindolin-4-yl)oct-7-yn-1-yl)(methyl)carbamoyl)-3-(5-methylbenzo[d]isoxazole-3-carbonyl)-6-oxodecahydropyrrolo[1,2-a][1,5]diazocin-5-yl)carbamoyl)naphthalen-2-yl)difluoromethyl)phosphoryl)bis(oxy))bis(ethane-2,1-diyl)) bis(2,2-dimethylpropanethioate)] | –
8 | < 0.1 | – | Cc1ccc2onc(C(=O)N3CC[C@H]4CC[C@@H](C(=O)N(C)CCCCCCC#Cc5cccc6c5CN(C5CCC(=O)NC5=O)C6=O)N4C(=O)[C@@H](NC(=O)c4ccc5ccc(C(F)(F)P(=O)(OCOC(=O)OC(C)C)OCOC(=O)OC(C)C)cc5c4)C3)c2c1 (stereo partly drawn) [Compound 19, ((((7-(((5S,8S,10aR)-8-((8-(2-(2,6-dioxopiperidin-3-yl)-1-oxoisoindolin-4-yl)oct-7-yn-1-yl)(methyl)carbamoyl)-3-(5-methylbenzo[d]isoxazole-3-carbonyl)-6-oxodecahydropyrrolo[1,2-a][1,5]diazocin-5-yl)carbamoyl)naphthalen-2-yl)difluoromethyl)phosphoryl)bis(oxy))bis(methylene) diisopropyl bis(carbonate)] | –
